Test system: NCI-H23 complex spheroids with HUVEC/MSC, viability
Test: Anticancer human tumor NCI-H23 cell line growth inhibition [RAS];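 further: spheroids exposed to compound for 7 days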;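 on viability, T/C: 100% = DMSO vehicle control viability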
Details: for IC50: curve of first compound; for viability, T/C: stronger effect = lower value
How it was run: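 Agents were tested in combination matrices in half-log decrements from a top concentration at or near clinical Cmax (10 microM if undetermined). Targets were multi-cell spheroids of tumour lines plus HUVEC and MSC stromal cells.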

In the case of `O=C(c1ccc(F)c(F)c1Nc1ccc(I)cc1F)N1CC(O)([C@@H]2CCCCN2)C1` + C#Cc1c(F)ccc2cc(O)cc(-c3ncc4c(N5CC6CCC(C5)N6)nc(OCC56CCCN5CC(F)C6)nc4c3F)c12, the IC50 (second compound 0.0316 µM) is reported as 82.6 nM, the IC50 (second compound 0.1 µM) is reported as 77.3 nM and the IC50 (second compound 0.316 µM) is reported as 73.2 nM. For the same compound, the IC50 (second compound 1 µM) was 68.3 nM, the IC50 (second compound 3.16 µM) was 15.4 nM and the IC50 (second compound 10 µM) was less than 3.16 nM. It also gave a viability, T/C (second compound 0.0316 µM, first compound 0.00316 µM) of 108%, a viability, T/C (second compound 0.0316 µM, first compound 0.01 µM) of 105% and a viability, T/C (second compound 0.0316 µM, first compound 0.0316 µM) of 70.8%. It also gave a viability, T/C (second compound 0.0316 µM, first compound 0.1 µM) of 44.1%, a viability, T/C (second compound 0.0316 µM, first compound 0.316 µM) of 35.9% and a viability, T/C (second compound 0.0316 µM, first compound 1 µM) of 19.1%. The viability, T/C (second compound 0.1 µM, first compound 0.00316 µM) was 103%, the viability, T/C (second compound 0.1 µM, first compound 0.01 µM) was 103% and the viability, T/C (second compound 0.1 µM, first compound 0.0316 µM) was 65.1%. It also gave a viability, T/C (second compound 0.1 µM, first compound 0.1 µM) of 47.1%, a viability, T/C (second compound 0.1 µM, first compound 0.316 µM) of 30.9% and a viability, T/C (second compound 0.1 µM, first compound 1 µM) of 21.6%. The viability, T/C (second compound 0.316 µM, first compound 0.00316 µM) was 99.8%, the viability, T/C (second compound 0.316 µM, first compound 0.01 µM) was 112% and the viability, T/C (second compound 0.316 µM, first compound 0.0316 µM) was 72.6%. For the same compound, the viability, T/C (second compound 0.316 µM, first compound 0.1 µM) was 42.5%, the viability, T/C (second compound 0.316 µM, first compound 0.316 µM) was 31.1% and the viability, T/C (second compound 0.316 µM, first compound 1 µM) was 20.4%. The viability, T/C (second compound 1 µM, first compound 0.00316 µM) was 91.2%, the viability, T/C (second compound 1 µM, first compound 0.01 µM) was 95.8% and the viability, T/C (second compound 1 µM, first compound 0.0316 µM) was 60.4%. It also gave a viability, T/C (second compound 1 µM, first compound 0.1 µM) of 43.8%, a viability, T/C (second compound 1 µM, first compound 0.316 µM) of 34.4% and a viability, T/C (second compound 1 µM, first compound 1 µM) of 21.1%. For the same compound, the viability, T/C (second compound 3.16 µM, first compound 0.00316 µM) was 56.3%, the viability, T/C (second compound 3.16 µM, first compound 0.01 µM) was 58.7% and the viability, T/C (second compound 3.16 µM, first compound 0.0316 µM) was 42.4%. The viability, T/C (second compound 3.16 µM, first compound 0.1 µM) was 40%, the viability, T/C (second compound 3.16 µM, first compound 0.316 µM) was 30.3% and the viability, T/C (second compound 3.16 µM, first compound 1 µM) was 17%. For the same compound, the viability, T/C (second compound 10 µM, first compound 0.00316 µM) was 36.5%, the viability, T/C (second compound 10 µM, first compound 0.01 µM) was 38.3% and the viability, T/C (second compound 10 µM, first compound 0.0316 µM) was 31.6%. It also gave a viability, T/C (second compound 10 µM, first compound 0.1 µM) of 31.9%, a viability, T/C (second compound 10 µM, first compound 0.316 µM) of 22.1% and a viability, T/C (second compound 10 µM, first compound 1 µM) of 12.3%.

For `CCc1c2c(nc3ccc(O)cc13)-c1cc3c(c(=O)n1C2)COC(=O)[C@]3(O)CC` + C=CC(=O)N1CCN(c2nc(OCC3CCCN3C)nc3c(F)c(-c4nc(N)cc(C)c4C(F)(F)F)c(Cl)cc23)C(C)C1, the IC50 (second compound 0.00316 µM) was less than 0.949 nM, the IC50 (second compound 0.01 µM) was less than 0.949 nM and the IC50 (second compound 0.0316 µM) was less than 0.949 nM. It also gave an IC50 (second compound 0.1 µM) of less than 0.949 nM, an IC50 (second compound 0.316 µM) of less than 0.949 nM and an IC50 (second compound 1 µM) of less than 0.949 nM. For the same compound, the viability, T/C (second compound 0.00316 µM, first compound 0.000949 µM) was 41.6%, the viability, T/C (second compound 0.00316 µM, first compound 0.003 µM) was 33.6% and the viability, T/C (second compound 0.00316 µM, first compound 0.00949 µM) was 11.7%. The viability, T/C (second compound 0.00316 µM, first compound 0.03 µM) was 3.8%, the viability, T/C (second compound 0.00316 µM, first compound 0.0949 µM) was 2.71% and the viability, T/C (second compound 0.00316 µM, first compound 0.3 µM) was 2.26%. The viability, T/C (second compound 0.01 µM, first compound 0.000949 µM) was 40.6%, the viability, T/C (second compound 0.01 µM, first compound 0.003 µM) was 26% and the viability, T/C (second compound 0.01 µM, first compound 0.00949 µM) was 8.37%. The viability, T/C (second compound 0.01 µM, first compound 0.03 µM) was 3.98%, the viability, T/C (second compound 0.01 µM, first compound 0.0949 µM) was 2.14% and the viability, T/C (second compound 0.01 µM, first compound 0.3 µM) was 1.54%. It also gave a viability, T/C (second compound 0.0316 µM, first compound 0.000949 µM) of 33.3%, a viability, T/C (second compound 0.0316 µM, first compound 0.003 µM) of 22.2% and a viability, T/C (second compound 0.0316 µM, first compound 0.00949 µM) of 9.5%. For the same compound, the viability, T/C (second compound 0.0316 µM, first compound 0.03 µM) was 4.43%, the viability, T/C (second compound 0.0316 µM, first compound 0.0949 µM) was 2.52% and the viability, T/C (second compound 0.0316 µM, first compound 0.3 µM) was 1.84%. For the same compound, the viability, T/C (second compound 0.1 µM, first compound 0.000949 µM) was 32.5%, the viability, T/C (second compound 0.1 µM, first compound 0.003 µM) was 19.6% and the viability, T/C (second compound 0.1 µM, first compound 0.00949 µM) was 6.47%. For the same compound, the viability, T/C (second compound 0.1 µM, first compound 0.03 µM) was 3.28%, the viability, T/C (second compound 0.1 µM, first compound 0.0949 µM) was 2.14% and the viability, T/C (second compound 0.1 µM, first compound 0.3 µM) was 2.49%. For the same compound, the viability, T/C (second compound 0.316 µM, first compound 0.000949 µM) was 27.8%, the viability, T/C (second compound 0.316 µM, first compound 0.003 µM) was 17.5% and the viability, T/C (second compound 0.316 µM, first compound 0.00949 µM) was 7.44%. For the same compound, the viability, T/C (second compound 0.316 µM, first compound 0.03 µM) was 3.62%, the viability, T/C (second compound 0.316 µM, first compound 0.0949 µM) was 2.47% and the viability, T/C (second compound 0.316 µM, first compound 0.3 µM) was 3.05%. It also gave a viability, T/C (second compound 1 µM, first compound 0.000949 µM) of 25.9%, a viability, T/C (second compound 1 µM, first compound 0.003 µM) of 21.2% and a viability, T/C (second compound 1 µM, first compound 0.00949 µM) of 8.12%. It also gave a viability, T/C (second compound 1 µM, first compound 0.03 µM) of 4.94%, a viability, T/C (second compound 1 µM, first compound 0.0949 µM) of 2.44% and a viability, T/C (second compound 1 µM, first compound 0.3 µM) of 2.51%.
